Assays:
Test in all cases: Zone of inhibition screen, 96 well agar array format
Assay type in all cases: cell-based
Design in all cases: scale not given here
S. aureus (ATCC 29213) = test system: S. aureus (ATCC 29213)
Summary of the method: (§1)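 Read-out is antibacterial activity on agar laid out as a 96-well array; every compound went through all strains of the panel.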

[1] = test system: S. epidermidis (ATCC 12228)
Summary of the method: as §1

E. faecalis (CL 4877) = test system: E. faecalis (CL 4877)
Summary of the method: as §1

[2] = zone of inhibition relative to 1 mg/ml p-chlorobiphenylvancomycin
[3] = zone of inhibition relative to 1 mg/ml stock solution of p-chlorobiphenylvancomycin

CC1OC(OC2C(Oc3c4cc5cc3Oc3ccc(cc3Cl)C(O)C3NC(=O)C(NC(=O)C5NC(=O)C(CC(N)=O)NC(=O)C(NC(=O)c5cccc(O)c5)C(O)c5ccc(c(Cl)c5)O4)c4ccc(O)c(c4)-c4c(O)cc(O)cc4C(C(=O)O)NC3=O)OC(CO)C(O)C2O)CC(C)(NCc2ccc(-c3ccc(Cl)cc3)cc2)C1O (stereo not drawn) [Compound 261]
2: zone score, S. aureus ATCC 29213 (S. aureus (ATCC 29213); [2]) | zone score, S. epidermidis ATCC 12228 [1, 2] | zone score, E. faecalis CL 4877 (E. faecalis (CL 4877); [2])

CC1OC(OC2C(Oc3c4cc5cc3Oc3ccc(cc3Cl)C(O)C3NC(=O)C(NC(=O)C5NC(=O)C(CC(N)=O)NC(=O)C(NC(=O)CC(N)C(N)=O)C(O)c5ccc(c(Cl)c5)O4)c4ccc(O)c(c4)-c4c(O)cc(O)cc4C(C(=O)O)NC3=O)OC(CO)C(O)C2O)CC(C)(NCc2ccc(-c3ccc(Cl)cc3)cc2)C1O (stereo not drawn) [Compound 59]
2: zone score, S. aureus ATCC 29213 (S. aureus (ATCC 29213); [3]) | zone score, S. epidermidis ATCC 12228 [1, 3] | zone score, E. faecalis CL 4877 (E. faecalis (CL 4877); [3])

CC(NC(=O)OCc1ccccc1)C(=O)NCC(=O)NCC(=O)NC1C(=O)NC(CC(N)=O)C(=O)NC2C(=O)NC3C(=O)NC(C(=O)NC(C(=O)O)c4cc(O)cc(O)c4-c4cc3ccc4O)C(O)c3ccc(c(Cl)c3)Oc3cc2cc(c3OC2OC(CO)C(O)C(O)C2OC2CC(C)(NCc3ccc(-c4ccc(Cl)cc4)cc3)C(O)C(C)O2)Oc2ccc(cc2Cl)C1O (stereo not drawn) [Compound 209]
2: zone score, S. aureus ATCC 29213 (S. aureus (ATCC 29213); [2]) | zone score, S. epidermidis ATCC 12228 [1, 2] | zone score, E. faecalis CL 4877 (E. faecalis (CL 4877); [2])

CC(=O)NCC(=O)NCC(=O)NC1C(=O)NC(CC(N)=O)C(=O)NC2C(=O)NC3C(=O)NC(C(=O)NC(C(=O)O)c4cc(O)cc(O)c4-c4cc3ccc4O)C(O)c3ccc(c(Cl)c3)Oc3cc2cc(c3OC2OC(CO)C(O)C(O)C2OC2CC(C)(NCc3ccc(-c4ccc(Cl)cc4)cc3)C(O)C(C)O2)Oc2ccc(cc2Cl)C1O (stereo not drawn) [Compound 120]
2: zone score, S. aureus ATCC 29213 (S. aureus (ATCC 29213); [3]) | zone score, S. epidermidis ATCC 12228 [1, 3] | zone score, E. faecalis CL 4877 (E. faecalis (CL 4877); [3])

COCCC(N)C(=O)NC1C(=O)NC(CC(N)=O)C(=O)NC2C(=O)NC3C(=O)NC(C(=O)NC(C(=O)O)c4cc(O)cc(O)c4-c4cc3ccc4O)C(O)c3ccc(c(Cl)c3)Oc3cc2cc(c3OC2OC(CO)C(O)C(O)C2OC2CC(C)(NCc3ccc(-c4ccc(Cl)cc4)cc3)C(O)C(C)O2)Oc2ccc(cc2Cl)C1O (stereo not drawn) [Compound 322]
2: zone score, S. aureus ATCC 29213 (S. aureus (ATCC 29213); [2]) | zone score, S. epidermidis ATCC 12228 [1, 2] | zone score, E. faecalis CL 4877 (E. faecalis (CL 4877); [2])

CC1OC(OC2C(Oc3c4cc5cc3Oc3ccc(cc3Cl)C(O)C(NC(=O)C3CCCN3C(=O)C3CCCN3)C(=O)NC(CC(N)=O)C(=O)NC5C(=O)NC3C(=O)NC(C(=O)NC(C(=O)O)c5cc(O)cc(O)c5-c5cc3ccc5O)C(O)c3ccc(c(Cl)c3)O4)OC(CO)C(O)C2O)CC(C)(NCc2ccc(-c3ccc(Cl)cc3)cc2)C1O (stereo not drawn) [Compound 86]
2: zone score, S. aureus ATCC 29213 (S. aureus (ATCC 29213); [3]) | zone score, S. epidermidis ATCC 12228 [1, 3] | zone score, E. faecalis CL 4877 (E. faecalis (CL 4877); [3])

CC(=O)N1CCCC1C(=O)NC1C(=O)NC(CC(N)=O)C(=O)NC2C(=O)NC3C(=O)NC(C(=O)NC(C(=O)O)c4cc(O)cc(O)c4-c4cc3ccc4O)C(O)c3ccc(c(Cl)c3)Oc3cc2cc(c3OC2OC(CO)C(O)C(O)C2OC2CC(C)(NCc3ccc(-c4ccc(Cl)cc4)cc3)C(O)C(C)O2)Oc2ccc(cc2Cl)C1O (mixture of isomers) [Compound 176]
2: zone score, S. aureus ATCC 29213 (S. aureus (ATCC 29213); [3]) | zone score, S. epidermidis ATCC 12228 [1, 3] | zone score, E. faecalis CL 4877 (E. faecalis (CL 4877); [3])

CC1OC(OC2C(Oc3c4cc5cc3Oc3ccc(cc3Cl)C(O)C3NC(=O)C(NC(=O)C5NC(=O)C(CC(N)=O)NC(=O)C(NC(=O)c5ccc6[nH]nnc6c5)C(O)c5ccc(c(Cl)c5)O4)c4ccc(O)c(c4)-c4c(O)cc(O)cc4C(C(=O)O)NC3=O)OC(CO)C(O)C2O)CC(C)(NCc2ccc(-c3ccc(Cl)cc3)cc2)C1O (stereo not drawn) [Compound 281]
2: zone score, S. aureus ATCC 29213 (S. aureus (ATCC 29213); [2]) | zone score, S. epidermidis ATCC 12228 [1, 2] | zone score, E. faecalis CL 4877 (E. faecalis (CL 4877); [2])

CC1OC(OC2C(Oc3c4cc5cc3Oc3ccc(cc3Cl)C(O)C3NC(=O)C(NC(=O)C5NC(=O)C(CC(N)=O)NC(=O)C(NC(=O)CCCN)C(O)c5ccc(c(Cl)c5)O4)c4ccc(O)c(c4)-c4c(O)cc(O)cc4C(C(=O)O)NC3=O)OC(CO)C(O)C2O)CC(C)(NCc2ccc(-c3ccc(Cl)cc3)cc2)C1O (stereo not drawn) [Compound 65]
2: zone score, S. aureus ATCC 29213 (S. aureus (ATCC 29213); [3]) | zone score, S. epidermidis ATCC 12228 [1, 3] | zone score, E. faecalis CL 4877 (E. faecalis (CL 4877); [3])

CC1OC(OC2C(Oc3c4cc5cc3Oc3ccc(cc3Cl)C(O)C3NC(=O)C(NC(=O)C5NC(=O)C(CC(N)=O)NC(=O)C(NC(=O)CC[S+](C)C)C(O)c5ccc(c(Cl)c5)O4)c4ccc(O)c(c4)-c4c(O)cc(O)cc4C(C(=O)O)NC3=O)OC(CO)C(O)C2O)CC(C)(NCc2ccc(-c3ccc(Cl)cc3)cc2)C1O (stereo not drawn) [Compound 94]
2: zone score, S. aureus ATCC 29213 (S. aureus (ATCC 29213); [3]) | zone score, S. epidermidis ATCC 12228 [1, 3] | zone score, E. faecalis CL 4877 (E. faecalis (CL 4877); [3])

CC1OC(OC2C(Oc3c4cc5cc3Oc3ccc(cc3Cl)C(O)C3NC(=O)C(NC(=O)C5NC(=O)C(CC(N)=O)NC(=O)C(NC(=O)C=Cc5c[nH]cn5)C(O)c5ccc(c(Cl)c5)O4)c4ccc(O)c(c4)-c4c(O)cc(O)cc4C(C(=O)O)NC3=O)OC(CO)C(O)C2O)CC(C)(NCc2ccc(-c3ccc(Cl)cc3)cc2)C1O (stereo not drawn) [Compound 321]
2: zone score, S. aureus ATCC 29213 (S. aureus (ATCC 29213); [2]) | zone score, S. epidermidis ATCC 12228 [1, 2] | zone score, E. faecalis CL 4877 (E. faecalis (CL 4877); [2])

CC1OC(OC2C(Oc3c4cc5cc3Oc3ccc(cc3Cl)C(O)C3NC(=O)C(NC(=O)C5NC(=O)C(CC(N)=O)NC(=O)C(NC(=O)CCO)C(O)c5ccc(c(Cl)c5)O4)c4ccc(O)c(c4)-c4c(O)cc(O)cc4C(C(=O)O)NC3=O)OC(CO)C(O)C2O)CC(C)(NCc2ccc(-c3ccc(Cl)cc3)cc2)C1O (stereo not drawn) [Compound 106]
2: zone score, S. aureus ATCC 29213 (S. aureus (ATCC 29213); [3]) | zone score, S. epidermidis ATCC 12228 [1, 3] | zone score, E. faecalis CL 4877 (E. faecalis (CL 4877); [3])

CC1OC(OC2C(Oc3c4cc5cc3Oc3ccc(cc3Cl)C(O)C3NC(=O)C(NC(=O)C5NC(=O)C(CC(N)=O)NC(=O)C(NC(=O)c5c[nH]cn5)C(O)c5ccc(c(Cl)c5)O4)c4ccc(O)c(c4)-c4c(O)cc(O)cc4C(C(=O)O)NC3=O)OC(CO)C(O)C2O)CC(C)(NCc2ccc(-c3ccc(Cl)cc3)cc2)C1O (stereo not drawn) [Compound 272]
2: zone score, S. aureus ATCC 29213 (S. aureus (ATCC 29213); [2]) | zone score, S. epidermidis ATCC 12228 [1, 2] | zone score, E. faecalis CL 4877 (E. faecalis (CL 4877); [2])

CC(=O)OCC(N)C(=O)NC1C(=O)NC(CC(N)=O)C(=O)NC2C(=O)NC3C(=O)NC(C(=O)NC(C(=O)O)c4cc(O)cc(O)c4-c4cc3ccc4O)C(O)c3ccc(c(Cl)c3)Oc3cc2cc(c3OC2OC(CO)C(O)C(O)C2OC2CC(C)(NCc3ccc(-c4ccc(Cl)cc4)cc3)C(O)C(C)O2)Oc2ccc(cc2Cl)C1O (stereo not drawn) [Compound 87]
2: zone score, S. aureus ATCC 29213 (S. aureus (ATCC 29213); [3]) | zone score, S. epidermidis ATCC 12228 [1, 3] | zone score, E. faecalis CL 4877 (E. faecalis (CL 4877); [3])

CC(NC(=O)CNC(=O)CNC(=O)OCc1ccccc1)C(=O)NC1C(=O)NC(CC(N)=O)C(=O)NC2C(=O)NC3C(=O)NC(C(=O)NC(C(=O)O)c4cc(O)cc(O)c4-c4cc3ccc4O)C(O)c3ccc(c(Cl)c3)Oc3cc2cc(c3OC2OC(CO)C(O)C(O)C2OC2CC(C)(NCc3ccc(-c4ccc(Cl)cc4)cc3)C(O)C(C)O2)Oc2ccc(cc2Cl)C1O (stereo not drawn) [Compound 213]
2: zone score, S. aureus ATCC 29213 (S. aureus (ATCC 29213); [2]) | zone score, S. epidermidis ATCC 12228 [1, 2] | zone score, E. faecalis CL 4877 (E. faecalis (CL 4877); [2])

CC1OC(OC2C(Oc3c4cc5cc3Oc3ccc(cc3Cl)C(O)C3NC(=O)C(NC(=O)C5NC(=O)C(CC(N)=O)NC(=O)C(NC(=O)C5CC(O)CN5)C(O)c5ccc(c(Cl)c5)O4)c4ccc(O)c(c4)-c4c(O)cc(O)cc4C(C(=O)O)NC3=O)OC(CO)C(O)C2O)CC(C)(NCc2ccc(-c3ccc(Cl)cc3)cc2)C1O (stereo not drawn) [Compound 54]
2: zone score, S. aureus ATCC 29213 (S. aureus (ATCC 29213); [3]) | zone score, S. epidermidis ATCC 12228 [1, 3] | zone score, E. faecalis CL 4877 (E. faecalis (CL 4877); [3])

CC(=O)Oc1ccc(C(=O)NC2C(=O)NC(CC(N)=O)C(=O)NC3C(=O)NC4C(=O)NC(C(=O)NC(C(=O)O)c5cc(O)cc(O)c5-c5cc4ccc5O)C(O)c4ccc(c(Cl)c4)Oc4cc3cc(c4OC3OC(CO)C(O)C(O)C3OC3CC(C)(NCc4ccc(-c5ccc(Cl)cc5)cc4)C(O)C(C)O3)Oc3ccc(cc3Cl)C2O)cc1 (stereo not drawn) [Compound 266]
2: zone score, S. aureus ATCC 29213 (S. aureus (ATCC 29213); [2]) | zone score, S. epidermidis ATCC 12228 [1, 2] | zone score, E. faecalis CL 4877 (E. faecalis (CL 4877); [2])

CCOCCC(=O)N[C@H]1C(=O)N[C@@H](CC(N)=O)C(=O)N[C@H]2C(=O)N[C@H]3C(=O)N[C@H](C(=O)N[C@@H](C(=O)O)c4cc(O)cc(O)c4-c4cc3ccc4O)[C@H](O)c3ccc(c(Cl)c3)Oc3cc2cc(c3O[C@@H]2O[C@H](CO)[C@@H](O)[C@H](O)[C@H]2O[C@@H]2C[C@@](C)(NCc3ccc(-c4ccc(Cl)cc4)cc3)[C@@H](O)[C@@H](C)O2)Oc2ccc(cc2Cl)[C@H]1O [Compound 258]
2: zone score, S. aureus ATCC 29213 (S. aureus (ATCC 29213); [2]) | zone score, S. epidermidis ATCC 12228 [1, 2] | zone score, E. faecalis CL 4877 (E. faecalis (CL 4877); [2])

CC(O)CC(=O)N[C@H]1C(=O)N[C@@H](CC(N)=O)C(=O)N[C@H]2C(=O)N[C@H]3C(=O)N[C@H](C(=O)N[C@@H](C(=O)O)c4cc(O)cc(O)c4-c4cc3ccc4O)[C@H](O)c3ccc(c(Cl)c3)Oc3cc2cc(c3O[C@@H]2O[C@H](CO)[C@@H](O)[C@H](O)[C@H]2O[C@@H]2C[C@@](C)(NCc3ccc(-c4ccc(Cl)cc4)cc3)[C@@H](O)[C@@H](C)O2)Oc2ccc(cc2Cl)[C@H]1O (stereo partly drawn) [Compound 262]
2: zone score, S. aureus ATCC 29213 (S. aureus (ATCC 29213); [2]) | zone score, S. epidermidis ATCC 12228 [1, 2] | zone score, E. faecalis CL 4877 (E. faecalis (CL 4877); [2])

From patent US6518243B1, “Desleucyl glycopeptide antibiotics and methods of making same” (Trustees of Princeton University, priority 1999, dated 2003)
